From ChEMBL document CHEMBL2311425, “Histone deacetylase (HDAC) inhibitors with a novel connecting unit linker region reveal a selectivity profile for HDAC4 and HDAC5 with improved activity against chemoresistant cancer cells” (J Med Chem, 2013)

Key:
[1] = test system: KYSE-510; experiment: Potentiation of 0.5 uM cisplatin-induced toxicity in 0.5 uM cisplatin resistant human KYSE-510 cells at 1.5 uM pretreated for 48 hrs followed by 0.5 uM cisplatin treatment by MTT assay; type: functional
[2] = target: T1, Histone deacetylase 11 (Homo sapiens, UniProt Q96DB2); experiment: Inhibition of human HDAC11 by fluorescence assay
T1 sequence (Q96DB2 whole entry): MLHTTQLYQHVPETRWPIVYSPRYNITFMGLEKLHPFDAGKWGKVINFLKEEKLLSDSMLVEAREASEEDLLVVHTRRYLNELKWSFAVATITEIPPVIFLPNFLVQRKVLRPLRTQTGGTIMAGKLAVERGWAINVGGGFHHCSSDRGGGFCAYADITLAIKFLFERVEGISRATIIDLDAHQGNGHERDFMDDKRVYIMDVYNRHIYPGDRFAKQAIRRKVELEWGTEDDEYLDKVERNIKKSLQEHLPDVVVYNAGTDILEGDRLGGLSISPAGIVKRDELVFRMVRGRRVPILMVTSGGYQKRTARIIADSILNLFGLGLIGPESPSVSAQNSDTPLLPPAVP

[3] = test system: A2780; experiment: Potentiation of 20 uM cisplatin-induced toxicity in 5 uM cisplatin resistant human A2780 cells at 1.5 uM pretreated for 48 hrs followed by 5 uM cisplatin treatment by MTT assay; type: functional
[4] = test system: A2780; experiment: Cytotoxicity against human A2780 cells after 72 hrs by MTT assay; type: functional, cell-based; conditions: A2780, 72 h
[5] = test system: MDA-MB-231; experiment: Potentiation of 40 uM cisplatin-induced toxicity in 1 uM cisplatin resistant human MDA-MB-231 cells at 1.5 uM pretreated for 48 hrs followed by 1 uM cisplatin treatment by MTT assay; type: functional
[6] = test system: MDA-MB-231; experiment: Potentiation of 25 uM cisplatin-induced toxicity in 1 uM cisplatin resistant human MDA-MB-231 cells at 1.5 uM pretreated for 48 hrs followed by 1 uM cisplatin treatment by MTT assay; type: functional

Cc1cc(C)cc(C(=O)NOCCCCCC(=O)NO)c1 was tested, and the Activity [1] was “Dose-dependent effect”, the “fractional inhibitory concentration index (FICI)” value [1] was 0.06 and the IC50 [2] was 852 nM. The Activity [3] was “Dose-dependent effect”, the “fractional inhibitory concentration index (FICI)” value [3] was 0.64 and the IC50 [4] was 490 nM. For the same compound, the Activity [5] was “Dose-dependent effect”, the “fractional inhibitory concentration index (FICI)” value [5] was 0.84 and the Activity [6] was “Dose-dependent effect”. The “fractional inhibitory concentration index (FICI)” value [6] was 0.73.
